One compound from patent publication US5945436A, “Pyridylmethyl nitriles, amides and thioamides useful as fungicides” (Uniroyal Chemical Company, Inc., priority 1997, dated 1999) can be followed below.

The structures appear in SMILES notation.

For test [1], the system named is Erysiphe graminis. Briefly: Powdery mildew of barley, systemic root uptake (BMS). The format is in vivo. Particulars: 45 ml of 250 mg/l, 8 days after inoculation. The procedure:
(§1) Compositions containing Compounds Nos. 1-81 were prepared by dissolving 0.24 grams of each of the compounds in 8 ml of acetone or other suitable inert solvent. Each of the resultant solutions was treated with 3 drops of TWEEN 20 (ethoxylated ethylene sorbitan monolaurate, a non-ionic surfactant)(I.C.I.), and water was added to form an emulsion. The degree of dilution with water was dictated by the desired concentration of the compound in the composition. The greater the quantity of water added, the lower the concentration of the compound in the composition, reported in milligrams per liter (mg/l) […] Upon reaching these ages, the plants were either treated with 45 ml of 250 mg/l concentration of the compositions of Example 9 or were left untreated. The untreated plants were used as controls. The 45 ml compositions saturated the soil of the treated pots without significant loss through drainage into the saucers below the pots. Twenty-four hours after the treatment with the compositions, both the barley and cucumber plants in all the pots, those treated and those untreated, were inoculated with powdery mildew fungus. This was accomplished by tapping leaves of previously infected barley and cucumber plants over the treated and untreated pots containing the barley and cucumber plants, respectively, to distribute spores of the fungus over the plants tested. […] Intermediate ratings were assigned depending on the degree of disease. […] The results of the powdery mildew disease control of barley are reported under the heading of "BMS". The results for cucumber mildew control are reported under the heading "CMS".

The test system of the next test is Erysiphe cichoracearum. Nature of the test: Powdery mildew of cucumber, systemic root uptake (CMS). In kind it is in vivo. Particulars: 45 ml of 250 mg/l, 8 days after inoculation. As for the experimental part:
as §1

The subject of the next test is Uromyces phaseoli. Nature of the test: Bean rust fungus eradicant test (URO PHA). Particulars: pinto bean, eradicant spray 2 days after inoculation, 1,000 mg/l. The format is in vivo. The procedure:
Compositions containing Compounds Nos. 1-81 were prepared by dissolving 0.24 grams of each of the compounds in 8 ml of acetone or other suitable inert solvent. Each of the resultant solutions was treated with 3 drops of TWEEN 20 (ethoxylated ethylene sorbitan monolaurate, a non-ionic surfactant)(I.C.I.), and water was added to form an emulsion. The degree of dilution with water was dictated by the desired concentration of the compound in the composition. The greater the quantity of water added, the lower the concentration of the compound in the composition, reported in milligrams per liter (mg/l) A plurality of pots were each planted with two pinto bean plants, Phaseolus vulgaris, each, susceptible to rust disease. When the plants were 7 days old, at the primary leaf stage of growth, they were all sprayed with a suspension containing 20,000 spores of the bean rust fungus, Uromyces phaseoli, per ml. All the pots were then incubated in a controlled environmental chamber, maintained at 99% humidity and 21° C., for 24 hours to allow infection to occur. The plants were then removed from the incubator and allowed to dry. Two days after inoculation each of the infected plants was then either sprayed with one of the compositions of Example 9, at a dosage of 1,000 mg/l, or left unsprayed. The unsprayed plants acted as controls. All of the sprayed and unsprayed plants were then placed in a greenhouse at 21° C. for nine days to allow the disease to develop. […] Control of disease was determined by comparing treated plants with the untreated controls. The results, expressed as percent reduction of disease, are summarized in Table II under the heading "URO PHA".

The next test relates to Erysiphe polygoni. Briefly: Powdery mildew on pinto bean, foliar application (ERY POL). The format is in vivo. Particulars: similar procedure as barley (1,000 mg/l). As for the experimental part:
(§2) Compositions containing Compounds Nos. 1-81 were prepared by dissolving 0.24 grams of each of the compounds in 8 ml of acetone or other suitable inert solvent. Each of the resultant solutions was treated with 3 drops of TWEEN 20 (ethoxylated ethylene sorbitan monolaurate, a non-ionic surfactant)(I.C.I.), and water was added to form an emulsion. The degree of dilution with water was dictated by the desired concentration of the compound in the composition. The greater the quantity of water added, the lower the concentration of the compound in the composition, reported in milligrams per liter (mg/l) Ten plants of "Robust" variety barley were planted in each of a plurality of pots. Each pot was then either sprayed with one of the compositions of Example 9, at a composition concentration of 1,000 mg/l, or left unsprayed. For each pot sprayed, one pot was left unsprayed as a control. After the leaves of the sprayed pots were dried, the sprayed pots and the unsprayed control pots were placed in a greenhouse maintained at 21° C. All the pots were then inoculated with barley powdery mildew fungus, Erysiphe graminis. This inoculation was accomplished by distributing spores of the fungus over the leaves of the plants to be tested from plants which had previously been infected with the mildew disease. […] Again, percent control was computed by comparing the treatment scores with the scores of the untreated controls. The results are summarized in Table II under the heading "ERY GRA". Using a similar procedure as described above for the barley, pinto bean plants were prepared, treated and inoculated with the fungus Erysiphe polygoni. The results of this testing are summarized in Table II under the heading "ERY POL".

In test [2] the test system is Erysiphe graminis. Nature of the test: Powdery mildew in barley, foliar application (ERY GRA). The format is in vivo. Particulars: foliar, 1,000 mg/l, 8 days after inoculation. As for the experimental part:
as §2, with “GRA".” for “GRA". Using a similar procedure as described above for the barley, pinto bean plants were prepared, treated and inoculated with the fungus Erysiphe polygoni. The results of this testing are summarized in Table II under the heading "ERY POL".”

In a further test the test system is Pyricularia oryzae. Nature of the test: whole plant or invertebrate. The format is in vivo. Particulars: barley, foliar, 1,000 mg/l.
A further test concerns Helminthosporium sativum. Briefly: Barley spot blotch, foliar treatment (HEL SAT). In kind it is in vivo. Particulars: foliar, 1,000 mg/l. The procedure:
Compositions containing Compounds Nos. 1-81 were prepared by dissolving 0.24 grams of each of the compounds in 8 ml of acetone or other suitable inert solvent. Each of the resultant solutions was treated with 3 drops of TWEEN 20 (ethoxylated ethylene sorbitan monolaurate, a non-ionic surfactant)(I.C.I.), and water was added to form an emulsion. The degree of dilution with water was dictated by the desired concentration of the compound in the composition. The greater the quantity of water added, the lower the concentration of the compound in the composition, reported in milligrams per liter (mg/l) Ten plants of six day-old Barley (variety "Robust") were planted in each of a plurality of pots. Each pot was then either sprayed with one of the compositions of Example 9, at a concentration of 1,000 mg/l, or left unsprayed. The unsprayed plants were used as controls. An equal number of pots were sprayed and unsprayed. All plants, sprayed and unsprayed, were thereafter inoculated with spores of the blotch fungus Helminthosporium sativum. All inoculated plants were placed in a 99% humidity chamber for 24 hours and then placed in a greenhouse, maintained at a temperature of 21° C., for eight days. […] Percent control was computed and the results are summarized in Table II under the heading "HEL SAT".

The next test relates to Septoria nodorum. Briefly: Fungal growth inhibition, treated disc on agar (SEP NOD). In kind it is cell-based. Particulars: disc dipped in 500 mg/l, 29° C.
A further test has as its system Pythium ultimum. Nature of the test: Fungal growth inhibition, treated disc on agar (PYT ULT). Particulars: disc dipped in 500 mg/l, 29° C. The format is cell-based.
The test system of another test is Scierotinia minor. Briefly: Fungal growth inhibition, treated disc on agar (SCL MIN). In kind it is cell-based. Particulars: disc dipped in 500 mg/l, 29° C.
The next test relates to Rhizoctonia solani. Briefly: Fungal growth inhibition, treated disc on agar (RHI SOL). The format is cell-based. Particulars: disc dipped in 500 mg/l, 29° C.
The subject of the next test is Botrytis cinerea. Briefly: Fungal growth inhibition, treated disc on agar (BOT CIN). In kind it is cell-based. Particulars: disc dipped in 500 mg/l, 29° C.
The next test concerns Fusarium oxysporum. Nature of the test: Fungal growth inhibition, treated disc on agar (FUS OXY). In kind it is cell-based. Particulars: disc dipped in 500 mg/l, 29° C.
The next test deals with Colletotrichum gossypii. Briefly: Fungal growth inhibition, treated disc on agar (COL GOS). Particulars: disc dipped in 500 mg/l, 29° C. The format is cell-based.

Excerpt for Botrytis cinerea: (§3) Filter paper discs, each 11 mm. in diameter, were dipped in each of the test solutions. The discs were allowed to air dry to drive off the acetone solvent. A number of untreated discs were used as controls.
(§4) The treated and untreated discs were then placed on agar plates and one of the following fungus species: Septoria nodorum (SEP NOD), Botrytis cinerea (BOT CIN), Fusarium oxysporum (FUS OXY), Pythium ultimum (PYT ULT), Rhizoctonia solani (RHI SOL), Colletotrichum gossypii (COL GOS), and Scierotinia minor (SCL MIN), was added to the center of each disc in the form of a culture plug with the fungus mat in contact with the paper of the test disc. Cercosporidium personatum (CER PER), was added to discs as a spore suspension (20,000 spores/ml) to the disc (two drops of spore suspension per disc), rather than a mycelial culture plug. The plates were then incubated at 29° C. in an oven.
(§5) With the exception of the discs containing Cercosporidium personatum, the discs were evaluated by first measuring the radius from the center of the fungus colony on the treated discs and on the untreated discs. Percent growth inhibition of each of the compounds tested was determined as a function of the difference between the radius of the fungus colony on the treated disc versus the radius of the fungus colony on the untreated disc.
Excerpt for Colletotrichum gossypii: as §3, §4, §5
Excerpt for Pythium ultimum: as §3, §4, §5
Excerpt for Septoria nodorum: as §3, §4, §5

For `CCCCC(C#N)(CCc1ccc(OC)cc1)c1ccccn1` (centres unmarked) [Compound 27], in the test with Erysiphe graminis [1], the “Percent Reduction of Disease, BMS” value is recorded as 0%. In addition, in the test with Erysiphe cichoracearum, the “Percent Reduction of Disease, CMS” value is on record as 0%. Also, the “Percent Reduction of Disease, URO PHA” value with Uromyces phaseoli is recorded as 100%. In addition, the “Percent Reduction of Disease, ERY POL” value with Erysiphe polygoni came out at 90%. The “Percent Reduction of Disease, ERY GRA” value in the test with Erysiphe graminis [2] turned out to be 90%. In addition, the “Percent Reduction of Disease, PYR ORY” value with Pyricularia oryzae was found to be 70%. In addition, the “Percent Reduction of Disease, HEL SAT” value in the test on Helminthosporium sativum was determined as 90%. For the same compound, the “Percent Growth Inhibition, SEP NOD” value in the test with Septoria nodorum stood at 10%. Besides, in the test with Pythium ultimum, the “Percent Growth Inhibition, PYT ULT” value worked out at 10%. Further, in the test on Scierotinia minor, the “Percent Growth Inhibition, SCL MIN” value turned out to be 93%. Further, in the test with Rhizoctonia solani, the “Percent Growth Inhibition, RHI SOL” value was determined as 5%. Moreover, the “Percent Growth Inhibition, BOT CIN” value with Botrytis cinerea was determined as 78%. The “Percent Growth Inhibition, FUS OXY” value in the test with Fusarium oxysporum was 10%. Also, in the test on Colletotrichum gossypii, the “Percent Growth Inhibition, COL GOS” value is recorded as 20%.
